This note sets out measurements from patent US11254668B2, “Pyrazolo[1,5-A]pyrazin-4-yl and related derivatives” (Pfizer Inc., priority 2017, dated 2022).

One may read the IC50 as the midpoint of a concentration-inhibition curve.

Type in all cases: biochemical
Experiment [1] addresses TYK2 (Homo sapiens (Human), UniProt P29597). The experiment in a line: JAK Caliper Enzyme Assay at 1 mM ATP, TYK2. An outline of the steps:
(§1)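 First, compound was incubated at room temperature with recombinant human kinase domain, a synthetic peptide and 1 mM ATP until 20–30% of peptide was phosphorylated. Next, EDTA stopped the reaction. Finally, electrophoretic separation quantified product, and percent effect relative to controls was plotted against concentration.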

The target in experiment [2] is JAK1 (Homo sapiens (Human), UniProt P23458). The experiment in a line: JAK Caliper Enzyme Assay at 1 mM ATP, JAK1. The gist of the method: (§2)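 IC50 (nM) derived from percent conversion of fluorescently labelled peptide, measured by Caliper LabChip mobility-shift separation after EDTA stop. Each JAK family kinase domain (human, recombinant) run at 1 mM ATP and room temperature, conditions set to 20-30% product; DMSO wells define uninhibited baseline.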
Chain of JAK1 (P23458 875-1153): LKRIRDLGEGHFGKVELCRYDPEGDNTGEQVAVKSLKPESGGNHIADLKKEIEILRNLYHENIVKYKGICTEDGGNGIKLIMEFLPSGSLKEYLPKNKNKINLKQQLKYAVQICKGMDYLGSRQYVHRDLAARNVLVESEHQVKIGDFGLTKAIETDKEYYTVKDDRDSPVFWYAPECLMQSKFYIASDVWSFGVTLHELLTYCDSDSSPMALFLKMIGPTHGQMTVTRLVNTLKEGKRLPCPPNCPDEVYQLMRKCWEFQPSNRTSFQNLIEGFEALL

For experiment [3], the target named is JAK2 (Homo sapiens (Human), UniProt O60674). The experiment in a line: JAK Caliper Enzyme Assay at 1 mM ATP, JAK2. The gist of the method:
as §1

Experiment [4] addresses JAK3 (Homo sapiens (Human), UniProt P52333). The experiment in a line: JAK Caliper Enzyme Assay at 1 mM ATP, JAK3. An outline of the steps:
as §2

Molecules are shown by their SMILES.

Chain of JAK2 (O60674 849-1124): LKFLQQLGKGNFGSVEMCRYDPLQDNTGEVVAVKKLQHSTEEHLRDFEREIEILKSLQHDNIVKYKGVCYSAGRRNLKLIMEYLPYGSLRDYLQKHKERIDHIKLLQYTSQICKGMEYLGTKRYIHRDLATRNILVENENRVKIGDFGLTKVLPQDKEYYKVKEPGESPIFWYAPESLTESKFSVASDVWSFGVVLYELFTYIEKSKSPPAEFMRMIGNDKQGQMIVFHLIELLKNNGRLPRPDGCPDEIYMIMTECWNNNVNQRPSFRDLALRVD
Chain of TYK2 (P29597 897-1176): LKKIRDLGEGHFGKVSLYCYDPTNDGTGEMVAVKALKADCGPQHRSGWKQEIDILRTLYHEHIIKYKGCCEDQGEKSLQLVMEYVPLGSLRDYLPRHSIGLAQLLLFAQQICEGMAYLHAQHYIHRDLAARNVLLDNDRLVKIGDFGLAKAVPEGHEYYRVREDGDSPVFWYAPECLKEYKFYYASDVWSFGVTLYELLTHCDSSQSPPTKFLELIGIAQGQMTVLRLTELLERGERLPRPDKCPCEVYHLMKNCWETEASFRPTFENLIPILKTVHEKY
Chain of JAK3 (P52333 822-1111): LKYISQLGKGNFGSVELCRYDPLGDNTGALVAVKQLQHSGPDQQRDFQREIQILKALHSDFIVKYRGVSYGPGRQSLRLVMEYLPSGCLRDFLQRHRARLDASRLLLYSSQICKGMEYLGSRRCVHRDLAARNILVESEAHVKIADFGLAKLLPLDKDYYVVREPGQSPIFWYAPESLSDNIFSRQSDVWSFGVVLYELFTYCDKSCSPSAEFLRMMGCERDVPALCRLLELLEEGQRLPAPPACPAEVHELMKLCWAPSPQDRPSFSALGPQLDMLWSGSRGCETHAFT

For `C[C@]1(C#N)C[C@@](CC#N)(n2ccc(-c3nc(-c4ccnc(N)c4)cc4ncccc34)n2)C1` [Example 201, cis-3-{3-[7-(2-aminopyridin-4-yl)-1,6-naphthyridin-5-yl]-1H-pyrazol-1-yl}-3-(cyanomethyl)-1-methylcyclobutanecarbonitrile], the IC50 in experiment [1] is 31 nM; in experiment [2] it was 308 nM; in experiment [3], 177 nM; in experiment [4], over 10000 nM.
For `CCOC(=O)Nc1cncc(-c2cc3ncccc3c(-c3ccn(C4(CC#N)CN(S(C)(=O)=O)C4)n3)n2)c1` [Example 202, ethyl [5-(5-{1-[3-(cyanomethyl)-1-(methylsulfonyl)azetidin-3-yl]-1H-pyrazol-3-yl}-1,6-naphthyridin-7-yl)pyridin-3-yl]carbamate] the same measures were 135 nM, over 10000 nM, over 10000 nM and over 10000 nM.
`CN(C)c1ccc(-c2cc3ncccc3c(-c3ccn(C4(CC#N)CN(S(C)(=O)=O)C4)n3)n2)cn1` [Example 203]: the IC50 in experiment [1] is 14 nM; in experiment [2], 264 nM; in experiment [3], 86 nM; in experiment [4], over 10000 nM.
On the same counts, the results for `CS(=O)(=O)Nc1cncc(-c2cc3ncccc3c(-c3ccn(C4(CC#N)CN(S(C)(=O)=O)C4)n3)n2)c1` [Example 204, N-[5-(5-{1-[3-(cyanomethyl)-1-(methylsulfonyl)azetidin-3-yl]-1H-pyrazol-3-yl}-1,6-naphthyridin-7-yl)pyridin-3-yl]methanesulfonamide] are 799 nM, over 10000 nM, 6690 nM and over 10000 nM.
For the compound `CS(=O)(=O)Nc1ccc(-c2cc3ncccc3c(-c3ccn(C4(CC#N)CN(S(C)(=O)=O)C4)n3)n2)cn1` [Example 205, N-[5-(5-{1-[3-(cyanomethyl)-1-(methylsulfonyl)azetidin-3-yl]-1H-pyrazol-3-yl}-1,6-naphthyridin-7-yl)pyridin-2-yl]methanesulfonamide], the IC50 in experiment [1] was 17 nM; in experiment [2], 120 nM; in experiment [3], 149 nM; in experiment [4], over 10000 nM.
On the same counts, the results for `CS(=O)(=O)c1ccc(-c2cc3ncccc3c(-c3ccn(C4(CC#N)CN(S(C)(=O)=O)C4)n3)n2)cn1` [Example 206, [1-(methylsulfonyl)-3-(3-{7-[6-(methylsulfonyl)pyridin-3-yl]-1,6-naphthyridin-5-yl}-1H-pyrazol-1-yl)azetidin-3-yl]acetonitrile] are 50 nM, 2530 nM, 479 nM and over 10000 nM.
On the same counts, the results for `CS(=O)(=O)c1ccc(-c2cc3ncccc3c(-c3ccn(C4(CC#N)CC(C#N)C4)n3)n2)cn1` (stereo not drawn) [Example 207, cis-3-(cyanomethyl)-3-(3-{7-[6-(methylsulfonyl)pyridin-3-yl]-1,6-naphthyridin-5-yl}-1H-pyrazol-1-yl)cyclobutanecarbonitrile] are 24 nM, 285 nM, 56 nM and 9270 nM.
On the same counts, the results for `CS(=O)(=O)c1ccc(-c2cc3ncccc3c(-c3ccn([C@]4(CC#N)C[C@@H](C#N)C4)n3)n2)cn1` [Example 208, trans-3-(cyanomethyl)-3-(3-{7-[6-(methylsulfonyl)pyridin-3-yl]-1,6-naphthyridin-5-yl}-1H-pyrazol-1-yl)cyclobutanecarbonitrile] are 81 nM, 2580 nM, 362 nM and over 10000 nM.
As for `CS(=O)(=O)N1CC(CC#N)(n2ccc(-c3nc(-c4ccc(S(N)(=O)=O)nc4)cc4ncccc34)n2)C1` [Example 209, 5-(5-{1-[3-(cyanomethyl)-1-(methylsulfonyl)azetidin-3-yl]-1H-pyrazol-3-yl}-1,6-naphthyridin-7-yl)pyridine-2-sulfonamide], the IC50 in experiment [1] was 51 nM; in experiment [2] it was 1940 nM; in experiment [3], 433 nM; in experiment [4], over 10000 nM.
On the same counts, the results for `N#CC[C@]1(n2ccc(-c3nc(-c4ccc(S(N)(=O)=O)nc4)cc4ncccc34)n2)C[C@H](C#N)C1` [Example 210, 5-(5-{1-[trans-3-cyano-1-(cyanomethyl)cyclobutyl]-1H-pyrazol-3-yl}-1,6-naphthyridin-7-yl)pyridine-2-sulfonamide] are 62 nM, 1530 nM, 300 nM and over 10000 nM.
Turning to `N#CC[C@]1(n2ccc(-c3nc(-c4ccc(S(N)(=O)=O)nc4)cc4ncccc34)n2)C[C@H](C#N)C1` [Example 211, 5-(5-{1-[cis-3-cyano-1-(cyanomethyl)cyclobutyl]-1H-pyrazol-3-yl}-1,6-naphthyridin-7-yl)pyridine-2-sulfonamide], the IC50 in experiment [1] turned out to be 17 nM; in experiment [2], 181 nM; in experiment [3] it was 39 nM; in experiment [4], 9820 nM.
On the same counts, the results for `N#CC[C@]1(n2ccc(-c3nc(-c4cccc(CO)n4)cc4ncccc34)n2)C[C@@H](C#N)C1` [Example 212, cis-3-(cyanomethyl)-3-(3-{7-[6-(hydroxymethyl)pyridin-2-yl]-1,6-naphthyridin-5-yl}-1H-pyrazol-1-yl)cyclobutanecarbonitrile] are 198 nM, 2950 nM, 900 nM and over 10000 nM.
For `N#CC[C@]1(n2ccc(-c3nc(-c4ccnc(CO)c4)cc4ncccc34)n2)C[C@@H](C#N)C1` [Example 213, cis-3-(cyanomethyl)-3-(3-{7-[2-(hydroxymethyl)pyridin-4-yl]-1,6-naphthyridin-5-yl}-1H-pyrazol-1-yl)cyclobutanecarbonitrile] the same measures were 19 nM, 87 nM, 46 nM and 4330 nM.
Consider `N#CC[C@]1(n2ccc(-c3nc(-c4cccc(C(N)=O)n4)cc4ncccc34)n2)C[C@H](C#N)C1` [Example 214, 6-(5-{1-[cis-3-cyano-1-(cyanomethyl)cyclobutyl]-1H-pyrazol-3-yl}-1,6-naphthyridin-7-yl)pyridine-2-carboxamide], for which the IC50 in experiment [1] is 53 nM; in experiment [2] it was 2020 nM; in experiment [3] it was 471 nM; in experiment [4] it was over 10000 nM.
For `N#CCC1(n2ccc(-c3nc(-c4ccnc(C(N)=O)c4)cc4ncccc34)n2)CN(CC(F)(F)F)C1` [Example 215, 4-(5-{1-[3-(cyanomethyl)-1-(2,2,2-trifluoroethyl)azetidin-3-yl]-1H-pyrazol-3-yl}-1,6-naphthyridin-7-yl)pyridine-2-carboxamide] the same measures were 175 nM, 6010 nM, 2190 nM and over 10000 nM.
For `N#CC[C@]1(n2ccc(-c3nc(-c4ccnc(C(N)=O)c4)cc4ncccc34)n2)C[C@H](C#N)C1` [Example 216, 4-(5-{1-[cis-3-cyano-1-(cyanomethyl)cyclobutyl]-1H-pyrazol-3-yl}-1,6-naphthyridin-7-yl)pyridine-2-carboxamide] the same measures were 36 nM, 464 nM, 117 nM and over 10000 nM.
For `Cc1ncc(-c2cc3ncccc3c(-c3ccn(C4(CC#N)CN(S(C)(=O)=O)C4)n3)n2)cc1N` [Example 217, [3-{3-[7-(5-amino-6-methylpyridin-3-yl)-1,6-naphthyridin-5-yl]-1H-pyrazol-1-yl}-1-(methylsulfonyl)azetidin-3-yl]acetonitrile] the same measures were 189 nM, 9340 nM, 1620 nM and over 10000 nM.
`Cc1ccc(-c2cc3ncccc3c(-c3ccn(C4(CC#N)CN(S(C)(=O)=O)C4)n3)n2)c(N)n1` [Example 218, [3-{3-[7-(2-amino-6-methylpyridin-3-yl)-1,6-naphthyridin-5-yl]-1H-pyrazol-1-yl}-1-(methylsulfonyl)azetidin-3-yl]acetonitrile]: the IC50 in experiment [1] is 38 nM; in experiment [2], 2700 nM; in experiment [3] it was 562 nM; in experiment [4], over 10000 nM.
On to `Cc1cc(-c2cc3ncccc3c(-c3ccn(C4(CC#N)CN(S(C)(=O)=O)C4)n3)n2)cnc1N` [Example 219, [3-{3-[7-(6-amino-5-methylpyridin-3-yl)-1,6-naphthyridin-5-yl]-1H-pyrazol-1-yl}-1-(methylsulfonyl)azetidin-3-yl]acetonitrile], for which the IC50 in experiment [1] was 488 nM; in experiment [2], 6410 nM; in experiment [3], 1750 nM; in experiment [4] it was over 10000 nM.
On the same counts, the results for `Cc1cc(-c2cc3ncccc3c(-c3ccn([C@]4(CC#N)C[C@@H](C#N)C4)n3)n2)cc(N)n1` [Example 220, trans-3-{3-[7-(2-amino-6-methylpyridin-4-yl)-1,6-naphthyridin-5-yl]-1H-pyrazol-1-yl}-3-(cyanomethyl)cyclobutanecarbonitrile] are 92 nM, 2140 nM, 768 nM and over 10000 nM.
On the same counts, the results for `Cc1cc(-c2cc3ncccc3c(-c3ccn([C@]4(CC#N)C[C@H](C#N)C4)n3)n2)cc(N)n1` [Example 221, cis-3-{3-[7-(2-amino-6-methylpyridin-4-yl)-1,6-naphthyridin-5-yl]-1H-pyrazol-1-yl}-3-(cyanomethyl)cyclobutanecarbonitrile] are 21 nM, 230 nM, 93 nM and 6650 nM.
